Data published in US9447157B2, “Nitration shielding peptides and methods of use thereof” (Augusta University Research Institute, Inc., priority 2013, dated 2016).

Target: T1, PKG-1α (Homo sapiens, UniProt Q13976, Y247F)
T1 sequence (Q13976 2-671 Y247F): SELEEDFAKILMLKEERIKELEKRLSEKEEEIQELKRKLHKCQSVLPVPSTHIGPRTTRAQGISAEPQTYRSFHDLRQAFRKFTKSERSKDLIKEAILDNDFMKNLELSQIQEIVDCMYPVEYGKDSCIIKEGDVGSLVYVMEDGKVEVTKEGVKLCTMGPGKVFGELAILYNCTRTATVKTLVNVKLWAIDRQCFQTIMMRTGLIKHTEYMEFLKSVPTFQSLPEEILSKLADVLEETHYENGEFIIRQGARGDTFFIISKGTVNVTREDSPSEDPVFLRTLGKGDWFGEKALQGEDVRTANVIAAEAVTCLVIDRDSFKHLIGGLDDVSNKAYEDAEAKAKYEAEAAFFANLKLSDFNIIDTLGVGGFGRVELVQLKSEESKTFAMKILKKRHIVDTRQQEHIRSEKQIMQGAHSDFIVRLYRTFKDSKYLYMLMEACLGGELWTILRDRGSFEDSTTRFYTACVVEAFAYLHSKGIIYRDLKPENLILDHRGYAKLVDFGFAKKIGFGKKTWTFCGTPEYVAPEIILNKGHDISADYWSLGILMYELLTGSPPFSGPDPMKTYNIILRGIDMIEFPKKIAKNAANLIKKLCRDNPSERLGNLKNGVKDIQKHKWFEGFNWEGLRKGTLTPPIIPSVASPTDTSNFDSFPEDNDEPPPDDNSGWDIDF
Assay: [3H]cGMP binding assay
Parameters: transfected with an expression plasmid containing a full length WT-PKG-1α cDNA; made in house; host or cells: HEK-293T (methods); the results paragraph b527 says PASMC
Conditions: SIN-1 500 μM 30 min
Protocol: HEK-293T cells were transiently transfected with either the WT-PKG-1α or the Y247FPKG-1α cDNA using Effectene transfection reagent (Qiagen), according to the manufacturer's instructions. Briefly, the cells were split the day before the transfection to low cell densities (25%) and were transfected 24 h later. After 48 h of transfection, the cells were incubated in DMEM serum free media containing 1% FBS and antibiotics for 4 h and then treated with or without SIN-1 (500 μM), for 30 min. This method produced an approximate 70% transfection efficiency of HEK-293T cells, as measured using green fluorescent protein vectors. […]
The batches of supernatant were pooled, and 2 μg of anti-PKG-1α antibody per mg of protein were added to the extract and rocked at 4° C. […] After 15 min of agitation at 4° C., the beads were pelleted by centrifugation, and the supernatant containing the PKG-1α protein was collected, quantified using Bradford reagent, and stored at −80° C.
To assay the binding of cGMP to WT- and Y247F-PKG-1α the enzymes were saturated with cGMP by incubating 50 μl aliquots of the diluted PKG constructs for 60 min at room temperature with 50 μl of [^3H]cGMP and 150 μl of cGMP-binding assay mixture (25 mM K2HPO4, 25 mM KH2PO4, 1 mM EDTA, pH 6.8, 2M NaCl, 200 μM 3-isobutyl-1-methylxanthine). […] The dissociation constant (Kd) values were determined using GraphPad Prism graphics.

- Maximal [3H]cGMP binding to Y247F-PKG-1α: but not to the Y247F-PKG-1α mutant
Substance: 3-morpholinosydnonimine N-ethylcarbamide [SIN-1]
